Laboratory results published in PubChem BioAssay AID248 (DTP/NCI, 2004).
Where “and” joins values, the source holds several entries; their conditions need not be identical. Equal values may be shown once. Toxic doses and inconclusive results are not listed. Cut-off read from the data, not from the text of the source: active = T/C of 150% or more; inactive = T/C below 125%.

Test system: L1210 leukemia ip in BDF1 mice, survival T/C
Assay: NCI In Vivo Anticancer Drug Screen. Data for tumor model L1210 Leukemia (intraperitoneal) in B6D2F1 (BDF1) mice
Settings: endpoint: mean survival time, higher = longer survival
Summary of the method: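 Mice bearing the transplanted tumor received compound or vehicle. Survival of the treated group was divided by that of the vehicle-treated control group to give the ratio.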

[1] = dose: 100.0 mg/kg/injection, schedule: Q04DX003 (ip), vehicle: saline
[2] = dose: 50.0 mg/kg/injection, schedule: Q01DX001 (ip), vehicle: carboxymethylcellulose (CMC)
[3] = dose: 100.0 mg/kg/injection, schedule: Q01DX001 (ip), vehicle: carboxymethylcellulose (CMC)
[4] = dose: 200.0 mg/kg/injection, schedule: Q01DX001 (ip), vehicle: carboxymethylcellulose (CMC)
[5] = dose: 400.0 mg/kg/injection, schedule: Q01DX001 (ip), vehicle: carboxymethylcellulose (CMC)
[6] = dose: 100.0 mg/kg/injection, schedule: Q04DX003 (ip), vehicle: saline with Tween-80
[7] = dose: 200.0 mg/kg/injection, schedule: Q04DX003 (ip), vehicle: saline with Tween-80
[8] = dose: 400.0 mg/kg/injection, schedule: Q04DX003 (ip), vehicle: saline with Tween-80
[9] = dose: 100.0 mg/kg/injection, schedule: Q04DX002 (ip), vehicle: saline
[10] = dose: 200.0 mg/kg/injection, schedule: Q04DX002 (ip), vehicle: saline
[11] = dose: 400.0 mg/kg/injection, schedule: Q04DX002 (ip), vehicle: saline
[12] = dose: 100.0 mg/kg/injection, schedule: Q01DX001 (ip), vehicle: saline
[13] = dose: 200.0 mg/kg/injection, schedule: Q01DX001 (ip), vehicle: saline
[14] = dose: 400.0 mg/kg/injection, schedule: Q01DX001 (ip), vehicle: saline
[15] = dose: 100.0 mg/kg/injection, schedule: Q01DX009 (ip), vehicle: saline
[16] = dose: 200.0 mg/kg/injection, schedule: Q01DX009 (ip), vehicle: saline

Measured: T/C

CCOC(OCC)/C(C)=N\NC(N)=S
inactive: dose: 15.0 mg/kg/injection, schedule: Q01DX Z (ip), vehicle: carboxymethylcellulose (CMC) 98 % of control | dose: 30.0 mg/kg/injection, schedule: Q01DX Z (ip), vehicle: carboxymethylcellulose (CMC) 102 % of control | dose: 60.0 mg/kg/injection, schedule: Q01DX Z (ip), vehicle: carboxymethylcellulose (CMC) 96 % of control | dose: 120.0 mg/kg/injection, schedule: Q01DX Z (ip), vehicle: carboxymethylcellulose (CMC) 86 % of control | dose: 120.0 mg/kg/injection, schedule: Q01DX Z (oral), vehicle: carboxymethylcellulose (CMC) 95 % of control | dose: 240.0 mg/kg/injection, schedule: Q01DX Z (oral), vehicle: carboxymethylcellulose (CMC) 97 % of control | dose: 480.0 mg/kg/injection, schedule: Q01DX Z (oral), vehicle: carboxymethylcellulose (CMC) 94 % of control

CCCCOc1ccccc1NC(=O)CCl
inactive: [1] 100 % of control | dose: 200.0 mg/kg/injection, schedule: Q04DX003 (ip), vehicle: saline 100 % of control | dose: 400.0 mg/kg/injection, schedule: Q04DX003 (ip), vehicle: saline 93 % of control

CC(C)(O)c1cccc2c(C(C)(C)O)cccc12
inactive: [2] 102 % of control | [3] 102 % of control | [4] 94 % of control | [5] 105 % of control

CC(C)(C)CC(C)(C)c1ccc(OCCOc2ccccc2N)cc1
inactive: [6] 94 % of control | [7] 95 % of control | [8] 97 % of control

O=[N+]([O-])c1ccc([As+](c2ccccc2)(c2ccccc2)c2ccccc2)cc1
inactive: dose: 10.0 mg/kg/injection, schedule: Q01DX001 (ip), vehicle: saline 88 % of control | dose: 20.0 mg/kg/injection, schedule: Q01DX001 (ip), vehicle: saline 92 % of control

Cc1c(Cl)cccc1NC(=S)Nc1ccccc1
inactive: dose: 100.0 mg/kg/injection, schedule: Q04DX002 (ip), vehicle: Klucel (hydroxypropylcellulose) (HPC) 100 % of control | dose: 200.0 mg/kg/injection, schedule: Q04DX002 (ip), vehicle: Klucel (hydroxypropylcellulose) (HPC) 95 % of control | dose: 400.0 mg/kg/injection, schedule: Q04DX002 (ip), vehicle: Klucel (hydroxypropylcellulose) (HPC) 95 % of control

CCCCCCCCCCCCSC1CC(=O)N(c2ccccc2)C1=O (stereo not drawn)
inactive: dose: 37.5 mg/kg/injection, schedule: Q04DX003 (ip), vehicle: other 99 % of control and 109 % of control | dose: 50.0 mg/kg/injection, schedule: Q01DX001 (ip), vehicle: other 98 % of control and 101 % of control and 104 % of control | dose: 75.0 mg/kg/injection, schedule: Q04DX003 (ip), vehicle: other 86 % of control and 89 % of control | dose: 100.0 mg/kg/injection, schedule: Q04DX002 (ip), vehicle: other 95 % of control and 89 % of control | dose: 100.0 mg/kg/injection, schedule: Q04DX003 (ip), vehicle: other 103 % of control | dose: 150.0 mg/kg/injection, schedule: Q04DX003 (ip), vehicle: other 86 % of control and 88 % of control | dose: 200.0 mg/kg/injection, schedule: Q04DX002 (ip), vehicle: other 89 % of control and 92 % of control | dose: 200.0 mg/kg/injection, schedule: Q04DX003 (ip), vehicle: other 97 % of control | dose: 400.0 mg/kg/injection, schedule: Q04DX002 (ip), vehicle: other 96 % of control and 89 % of control | dose: 400.0 mg/kg/injection, schedule: Q04DX003 (ip), vehicle: other 94 % of control

Nc1c(-c2ccccc2)nnn1-c1cccc(Cl)c1
inactive: dose: 25.0 mg/kg/injection, schedule: Q04DX002 (ip), vehicle: gum acacia 95 % of control | dose: 50.0 mg/kg/injection, schedule: Q04DX002 (ip), vehicle: gum acacia 95 % of control | dose: 100.0 mg/kg/injection, schedule: Q04DX002 (ip), vehicle: gum acacia 96 % of control and 98 % of control

NC(=O)c1ccn(C2OC(CO)C(O)C2O)n1 (stereo not drawn)
inactive: dose: 50.0 mg/kg/injection, schedule: Q01DX005 (ip), vehicle: water 105 % of control | dose: 100.0 mg/kg/injection, schedule: Q01DX005 (ip), vehicle: water 102 % of control | dose: 200.0 mg/kg/injection, schedule: Q01DX005 (ip), vehicle: water 102 % of control

[Cl][Sn]([Cl])([Cl])[Cl]
inactive: [1] 95 % of control

Cc1ccc(NP(=O)(Oc2c(F)c(F)c(F)c(F)c2F)N(CCCl)CCCl)cc1 (stereo not drawn)
inactive: dose: 62.5 mg/kg/injection, schedule: Q01DX001 (ip), vehicle: other 100 % of control | dose: 125.0 mg/kg/injection, schedule: Q01DX001 (ip), vehicle: other 112 % of control | dose: 250.0 mg/kg/injection, schedule: Q01DX001 (ip), vehicle: other 106 % of control | dose: 500.0 mg/kg/injection, schedule: Q01DX001 (ip), vehicle: other 108 % of control

O=C(NCCCl)OCCCl
inactive: [9] 94 % of control | [10] 97 % of control | [11] 94 % of control

CC1(C)N=C(N)N=C(N)N1c1cccc(OCCCOc2ccc(NC(=O)/C=C\C(=O)O)cc2)c1
inactive: [12] 102 % of control | [13] 101 % of control | [14] 102 % of control

N#CCCO
inactive: dose: 25.0 mg/kg/injection, schedule: Q04DX002 (ip), vehicle: saline 98 % of control | dose: 50.0 mg/kg/injection, schedule: Q04DX002 (ip), vehicle: saline 101 % of control | [9] 110 % of control and 121 % of control | [10] 96 % of control | [11] 108 % of control

O=C(/C=C\c1ccccc1)OCCCCOC(=O)/C=C/c1ccccc1
inactive: dose: 50.0 mg/kg/injection, schedule: Q01DX001 (ip), vehicle: saline 103 % of control | [12] 101 % of control | [13] 91 % of control | [14] 97 % of control

COc1c(Cl)c(C(Cl)(Cl)Cl)nc2ccccc12
inactive: dose: 50.0 mg/kg/injection, schedule: Q01DX009 (ip), vehicle: Klucel (hydroxypropylcellulose) (HPC) 101 % of control | dose: 100.0 mg/kg/injection, schedule: Q01DX009 (ip), vehicle: Klucel (hydroxypropylcellulose) (HPC) 104 % of control

NC1=C(Sc2ccccc2)C(=O)c2ccccc2C1=O
inactive: dose: 100.0 mg/kg/injection, schedule: Q01DX001 (ip), vehicle: saline with Tween-80 105 % of control | dose: 200.0 mg/kg/injection, schedule: Q01DX001 (ip), vehicle: saline with Tween-80 94 % of control | dose: 400.0 mg/kg/injection, schedule: Q01DX001 (ip), vehicle: saline with Tween-80 94 % of control

COC(=O)C1=C(C(=O)OC)C2CC1C1OC21 (stereo not drawn)
inactive: [15] 96 % of control | [16] 98 % of control

CC(=O)N(c1ccccc1)c1cc(Cl)cc[n+]1[O-]
inactive: [12] 96 % of control | [13] 96 % of control | [14] 97 % of control

C=C(Br)C(C)(C)C
inactive: dose: 50.0 mg/kg/injection, schedule: Q01DX009 (ip), vehicle: saline 101 % of control | [15] 101 % of control | [16] 101 % of control

CCN(CC)c1ccc(N=Nc2ccccc2)cc1
inactive: [2] 93 % of control | [3] 86 % of control | [4] 96 % of control | [5] 98 % of control

c1ccc(C2c3cccc4c3C3c5c2cccc5C(c2ccccc2)c2cccc(c23)C4c2ccccc2)cc1 (stereo not drawn)
inactive: [6] 108 % of control | [7] 95 % of control | [8] 100 % of control
